The values below come from patent publication US20110130355A1, “USE OF SOPHORICOSIDE IN THE MANUFACTURE OF MEDICAMENTS” (priority 2008, published 2011).

Each structure is given as a SMILES string.

The data set in a line: Body weights of rats before and after the treatments. Particulars: OVX rats, after treatment (11 weeks). The format is in vivo, SD rats. The procedure:
OVX group and the intervention groups: The rats were anesthetized by intraperitoneal injection of 1% pentobarbital sodium at 5 ml/kg. After the onset of anesthesia, the rats were positioned face-down and dehaired at the third lumbar vertebra below the costal arch. The skin was sanitized by benzalkonium bromide and incised by about 1 cm. The subcutaneous tissue and the fascia were incised, and the muscle was bluntly separated. The peritoneum was carefully cut open. White fat was lifted carefully by using tissue forceps inserted to the abdominal cavity through the incision. The fat was gently turned over to expose the quincuncial ovary, which was then ligated by sterile 1 silk thread. The ovary was separated by cutting the oviduct by ophthalmic scissors. After hemostasis by compression, the fat was returned into the abdominal cavity. Subsequently, an incision was made on the opposite side and the same procedures were carried out to excise the ovary on the opposite side. The peritoneum, the fascia, the subcutaneous tissue, and the skin were sutured one by one. The incisions were sanitized. The rats were raised in the clean SPF animal chamber in the Animal Experimental Center of the Shanghai Institutes for Biological Sciences, CAS, with temperature maintained at 24° C., humidity maintained at 40˜60%, and a diurnal rhythm of 12 h/12 h. The rats were supplied with normal food and purified water ad libitum. The vehicle was 1% sodium carboxymethylcellulose (CMC-Na). The sham group and OVX group were administered the vehicle by gavage. Intervention groups were administered the following formulations of active agents dissolved in the vehicle: The rats were sacrificed by cervical dislocation after 11 weeks. Uteri were removed, weighted, and fixed in 4% paraformaldehyde (PFA). The whole right knee joints were removed and fixed in 4% PFA. The rats were weighted, and then sacrificed. The uteri were removed from the rats and determined for wet weights.

Regarding `O=c1c(-c2ccc(O[C@@H]3O[C@H](CO)[C@@H](O)[C@H](O)[C@H]3O)cc2)coc2cc(O)cc(O)c12` [HDA, 3-[4-(β-D-glucopyranosyl)-benzyl]5,7-dihydro-4H-1-benzopyran-4-one (4′,5,7-trihydroxylisoflavone-4′-D-glucoside)], the Final body weight reads like this: (sophoricoside 10 mg/kg/day) 370.9 ± 5.7 g; (sophoricoside 20 mg/kg/day) 376.2 ± 6.5 g; (sophoricoside 40 mg/kg/day) 372.5 ± 6.8 g; (sophoricoside 80 mg/kg/day) 362.8 ± 3.4 g.
